“Also recorded” adds a separate entry of the source.
Key:
LN229 cells [1] = assay: Determination of cell-associated MNPs (MNPcell) in LN229 cells; format: cell-based, human; conditions: for effect on uptake of MNPs, in words: MNPs 100 μg/mL, 10 or 30 μM, 24 hrs, vs vehicle; for capability of enhancing cellular uptake of MNPs, in words / concentration as low as which cellular uptake of MNPs is significantly increased: FIG. 4; for capability of enhancing cellular uptake of MNPs, in words: LN-299 [sic] cells; for increase of MNPcell / enhancement of MNPcell at 4° C.: LN229 cells; for enhancement of MNPcell at 4° C.: 30 μM, 2 h; for effect on cell-associated MNPs (MNPcell), in words: LN-229 cells, with or without magnetic field; for increase of cellular uptake of MNP: vs without compound
Description: (§1) LN229 cells, human glioma cells, were cultured in DMEM medium; whereas HeLa cells, human cervical cancer cells, were cultured in MEM medium. Both media were supplemented with 10% fetal bovine serum (FBS) and 1% penicillin/streptomycin/amphotericin B solution. The cells were maintained in a 37° C. incubator supplied with 5% CO2 and sub-cultured every 3 to 4 days.
LN229 or HeLa cells were seeded and grown in 24-well plates. […] In some experiments, cells were equilibrated at 4° C. for 20 min, followed by an additional 2-h incubation with MNPs at 4° C. in the absence and presence of the magnet. A home-made magnetic plate with 24 pieces of cylindrical NdFeB magnet were used to provide a magnetic field of 3.4 kG at the center of each well. For the group without the magnet during incubation with MNPs, the magnetic plate was placed underneath the culture plates for 5 min after MNP administration to facilitate MNP sedimentation. The cells were then washed twice with phosphate-buffered saline (PBS) and trypsinized prior to colorimetric quantification. The cell pellet containing cell-associated MNPs (MNPcell) was treated with 10% hydrochloric acid at 55° C. for 4 h, followed by adding ammonium persulfate (1 mg/mL) and potassium thiocyanate solution (1 M). The amount of cell-associated iron was determined with VICTOR3 Multilabel Plate Reader (PerkinElmer, Waltham, Mass.) at OD490. A calibration curve was prepared under identical conditions.

LN229 cells [2] = assay: Confocal microscopy of fluorescent CMX-MNP internalization; format: cell-based, human
Description: LN229 cells were seeded onto poly-lysine coated coverslips 18 h before experiments. The cells were incubated with green fluorescent MNPs with carboxylmethyl-dextran coating (nano-screenMAG-CMX; 100 μg/mL) and methyl gallate (30 μM) at 37° C. for 2 h in the presence of NdFeB magnet underneath the culture plate. Cells were then washed twice with PBS and then incubated with Lysotracker® (0.125 μM) for 30 min for staining of lysosomes. The cells were than washed with PBS and fixed with 4% paraformaldehyde for 20 min at room temperature. The cells were counterstained with DAPI and imaged with a Zeiss LSM 510 Meta laser confocal microscope system equipped with a 100×/1.4 oil immersion objective lens. Image processing and analysis of fluorescent MNPs colocalized with cells was performed using Fiji Image J.

HeLa cells = assay: Determination of cell-associated MNPs (MNPcell) in HeLa cells; format: cell-based, human; conditions: for increase of MNPcell: 10 μM; for effect on cell-associated MNPs (MNPcell), in words: with or without magnetic field
Description: as §1
(§2) LN229 or HeLa cells were seeded and grown in 24-well plates. After attaining 80-90% confluence, the cells were exposed to MNPs (100 μg/mL) and phenolic compounds (10 or 30 μM) in the presence or absence of NdFeB magnet underneath the plate for 24 h. In some experiments, cells were equilibrated at 4° C. for 20 min, followed by an additional 2-h incubation with MNPs at 4° C. in the absence and presence of the magnet. A home-made magnetic plate with 24 pieces of cylindrical NdFeB magnet were used to provide a magnetic field of 3.4 kG at the center of each well. For the group without the magnet during incubation with MNPs, the magnetic plate was placed underneath the culture plates for 5 min after MNP administration to facilitate MNP sedimentation. The cells were then washed twice with phosphate-buffered saline (PBS) and trypsinized prior to colorimetric quantification. The cell pellet containing cell-associated MNPs (MNPcell) was treated with 10% hydrochloric acid at 55° C. for 4 h, followed by adding ammonium persulfate (1 mg/mL) and potassium thiocyanate solution (1 M). The amount of cell-associated iron was determined with VICTOR3 Multilabel Plate Reader (PerkinElmer, Waltham, Mass.) at OD490. A calibration curve was prepared under identical conditions.

tumor cells = assay: Timing of EGCG and MNP addition, MNPcell in 5 study groups; format: cell-based
Description: as §2
In this example, the timing for adding the present polyphenolic compound with MNPs to the tumor cells was investigated. To this purpose, 5 study groups were designed and respectively treated with the designated compounds, then the MNPcell in each group was determined. The concentrations of MNPs and epigallocatechin gallate (EGCG) or compound 12 used in this example were respectively 100 μg/mL and 10 μM. In Group I (the control group), cells were treated with MNPs (2 hrs). In Group 2, cells were first treated with EGCG (2 hrs), which was removed, and then with MNPs (2 hrs). In Group 3, cells were simultaneously treated with EGCG and MNPs for 2 hours. In Group 4, cells were first treated with EGCG (2 hrs), then with the combination of MNP and EGCG (2 hrs). […]

[3] = 10 μM, magnetic field-free environment

O=C(O)c1ccc(O)c(O)c1 [Compound 5, protocatechuic acid]
effect on uptake of MNPs, in words (LN229 cells [1]; presence of magnet): enhanced the uptake of MNPs in the presence of magnet

O=c1c(O)c(-c2ccc(O)c(O)c2)oc2cc(O)cc(O)c12 [quercetin]
cellular uptake of MNP higher than without compound (LN229 cells [1]; 20 μM, absence of magnetic field): 5 times | capability of enhancing cellular uptake of MNPs, in words (LN229 cells [1]): possessed the capability of enhancing cellular uptake of MNPs; also recorded: enhanced cellular uptake of MNPs | effect on uptake of MNP in the presence of magnet, in words (LN229 cells [1]; presence of magnet): more significant increase in the uptake of MNP via a concentration-dependent manner

CCCOC(=O)c1cc(O)c(O)c(O)c1 [Compound 3, Propyl Gallate]
effect on uptake of MNPs, in words (LN229 cells [1]; absence of magnet): effective in enhancing the uptake of MNPs | effect on uptake of MNPs, in words (LN229 cells [1]; presence of magnet): effective in enhancing the uptake of MNPs

NC(=O)c1cc(O)c(O)c(O)c1 [Compound 4, 3,4,5-trihydroxybenzamide]
effect on uptake of MNPs, in words (LN229 cells [1]; absence of magnet): effective in enhancing the uptake of MNPs | effect on uptake of MNPs, in words (LN229 cells [1]; presence of magnet): effective in enhancing the uptake of MNPs

COC(=O)c1cc(O)c(O)c(O)c1 [Compound 2, Methyl Gallate]
increase of MNPcell (LN229 cells [1]; 10 μM, absence of the magnet): 1.4 fold | increase of MNPcell (LN229 cells [1]; 10 μM, magnet underneath cells): 2.1 fold | increase of MNPcell (LN229 cells [1]; 50 μM, absence of the magnet): 4.5 fold | increase of MNPcell (LN229 cells [1]; 50 μM, presence of the magnet): 2.9 fold | enhancement of MNPcell at 4° C. (LN229 cells [1]; with the magnet): 0.4 fold | enhancement of MNPcell at 4° C. (LN229 cells [1]; without magnet): 1.4 fold | effect on cell-associated MNPs (MNPcell), in words (LN229 cells [1]; listed as Methyl gallate): enhanced MNPcell in a concentration-dependent manner | effect on cell-associated MNPs (MNPcell), in words (LN229 cells [1]; listed as methyl gallate): concentration-dependent increase | effect on uptake of MNPs, in words (LN229 cells [1]; absence of magnet): effective in enhancing the uptake of MNPs | effect on uptake of MNPs, in words (LN229 cells [1]; presence of magnet): effective in enhancing the uptake of MNPs | internalization of MNPs, in words (LN229 cells [2]; 30 μM, 2 h, CMX-MNP 100 μg/mL, compared to vehicle control): greatly increased internalization of MNPs | overlap coefficient, Mander's coefficient, of MNP relative to lysosomes (LN229 cells [2]; in the presence of methyl gallate (n=8), vehicle 0.51±0.08): 0.65±0.03 | increase of MNPcell (HeLa cells; absence of the magnet): 0.6 fold | increase of MNPcell (HeLa cells; presence of the magnet): 1.0 fold | effect on cell-associated MNPs (MNPcell), in words (HeLa cells): concentration-dependent increase

O=C(O)c1cc(O)cc(O)c1 [Compound 7, α-resorcylic acid]
effect on uptake of MNPs, in words (LN229 cells [1]; absence of magnet): none of them was effective | effect on uptake of MNPs, in words (LN229 cells [1]; presence of magnet): none of them was effective

O=C(O)c1ccc(O)cc1 [Compound 6, p-hydroxybenzoic acid]
effect on uptake of MNPs, in words (LN229 cells [1]; absence of magnet): none of them was effective | effect on uptake of MNPs, in words (LN229 cells [1]; presence of magnet): none of them was effective

O.O=C(O)c1cc(O)c(O)c(O)c1 [Compound 1, Gallic acid monohydrate]
increase of MNPcell (LN229 cells [1]; 50 μM, absence of the magnet): 5.4 fold | increase of MNPcell (LN229 cells [1]; 50 μM, presence of the magnet): 3.9 fold | enhancement of MNPcell at 4° C. (LN229 cells [1]; with the magnet): 0.6 fold | enhancement of MNPcell at 4° C. (LN229 cells [1]; without magnet): 1.9 fold | effect on cell-associated MNPs (MNPcell), in words (LN229 cells [1]): concentration-dependent increase | effect on uptake of MNPs, in words (LN229 cells [1]; absence of magnet): effective in enhancing the uptake of MNPs | effect on uptake of MNPs, in words (LN229 cells [1]; presence of magnet): effective in enhancing the uptake of MNPs | concentration as low as which a significant increase in LN229 cell-associated MNPs is induced (LN229 cells [1]; compared to vehicle, with and without magnet): 6 µM | increase of MNPcell (HeLa cells; absence of the magnet): 1.8 fold | increase of MNPcell (HeLa cells; presence of the magnet): 1.9 fold | effect on cell-associated MNPs (MNPcell), in words (HeLa cells): concentration-dependent increase

O=C(O)CCc1ccc(O)c(O)c1 [Compound 10, Dihydrocaffeic Acid]
effect on uptake of MNPs, in words (LN229 cells [1]; presence of magnet): enhanced the uptake of MNPs in the presence of magnet

O=C(O)/C=C/c1ccc(O)c(O)c1 [Compound 9, caffeic acid]
effect on uptake of MNPs, in words (LN229 cells [1]; presence of magnet): enhanced the uptake of MNPs in the presence of magnet

O=C(O[C@@H]1Cc2c(O)cc(O)cc2O[C@@H]1c1cc(O)c(O)c(O)c1)c1cc(O)c(O)c(O)c1 [Compound 12, Epigallocatechin gallate]
uptake of MNPs, in words (tumor cells; Group 2: EGCG 10 μM 2 hrs, removed, then MNPs 100 μg/mL 2 hrs): no enhanced uptake of MNPs was found | uptake of MNPs, in words (tumor cells; Group 3: EGCG 10 μM and MNPs 100 μg/mL simultaneously 2 hours, presence and absence of magnet): enhanced uptake of MNPs was achieved | uptake of MNPs, in words (tumor cells; Groups 4 and 5: EGCG pre-treatment 2 or 4 hrs, then MNP and EGCG 2 hrs, vs Group 3): did not result in further increase in the cellular uptake of MNPs | increase of cellular uptake of MNP (LN229 cells [1]; 10 μM, external magnetic field): 16 times | increase of cellular uptake of MNP (LN229 cells [1]; [3]): 5.7 times | concentration as low as which cellular uptake of MNPs is significantly increased (LN229 cells [1]): 3 µM | capability of enhancing cellular uptake of MNPs, in words (LN229 cells [1]; listed as EGCG): possessed the capability of enhancing cellular uptake of MNPs; also recorded: enhanced cellular uptake of MNPs

O=C(O[C@@H]1Cc2c(O)cc(O)cc2O[C@@H]1c1ccc(O)c(O)c1)c1cc(O)c(O)c(O)c1 [Compound 13, Epicatechin gallate]
increase of cellular uptake of MNP (LN229 cells [1]; 10 μM, external magnetic field): 5-6 times | increase of cellular uptake of MNP (LN229 cells [1]; [3]): 12 times | concentration as low as which cellular uptake of MNPs is significantly increased (LN229 cells [1]): 3 µM | capability of enhancing cellular uptake of MNPs, in words (LN229 cells [1]; listed as ECG): possessed the capability of enhancing cellular uptake of MNPs; also recorded: enhanced cellular uptake of MNPs

COc1cc(/C=C/C(=O)O)ccc1O [Compound 11, ferulic acid]
effect on uptake of MNPs, in words (LN229 cells [1]; absence of magnet): none of them was effective | effect on uptake of MNPs, in words (LN229 cells [1]; presence of magnet): none of them was effective
